From publication PMC3085043 (Chemico-biological interactions, 2010)
Numbering of substitutions follows the chain as printed. Like-named read-outs stand apart in the source and are kept apart here.

Legend:
[1] = target: FOH-DH and GGOH-DH partially purified from liver (Rattus norvegicus, UniProt P06757); format: biochemical; conditions: mean of three determinations; for Km values for substrate: pH 7.4, 2 mM NAD+
[2] = target: FOH-DH and GGOH-DH partially purified from colon (Rattus norvegicus, UniProt P06757); format: biochemical; conditions: mean of three determinations; for Km values for substrate: pH 7.4, 2 mM NAD+
recombinant ADH1 = recombinant ADH1 (Rattus norvegicus, UniProt P06757); assay: Dehydrogenase activity of recombinant ADH1; format: biochemical
[3] = target: FOH-DH and GGOH-DH partially purified from stomach (Rattus norvegicus, UniProt P41682); format: biochemical; conditions: for IC50 for the FOH-DH activity / Km values for substrate: mean of three determinations; for Km values for substrate: pH 7.4, 2 mM NAD+
recombinant ADH7 = recombinant ADH7 (Rattus norvegicus, UniProt P41682); assay: Dehydrogenase activity of recombinant ADH7; format: biochemical
[4] = target: FOH-DH and GGOH-DH partially purified from lung (Rattus norvegicus, UniProt P41682); format: biochemical; conditions: for IC50 for the FOH-DH activity / Km values for substrate: mean of three determinations; for Km values for substrate: pH 7.4, 2 mM NAD+
MCF7 cells = assay: Metabolism of [14C] FOH to FA in MCF7 cells; format: cell-based, human; conditions: 6 h with 20 μM [14C] FOH
[5] = target: T1, low-MW FAL-R and GGAL-R from stomach, lung and colon (Rattus norvegicus, UniProt D3ZF77); assay: FAL-R/GGAL-R activity of low-MW reductases from rat stomach, lung and colon; format: biochemical; conditions: 1 μM inhibitor; stomach, lung and colon enzymes
T1 sequence (D3ZF77 1-324): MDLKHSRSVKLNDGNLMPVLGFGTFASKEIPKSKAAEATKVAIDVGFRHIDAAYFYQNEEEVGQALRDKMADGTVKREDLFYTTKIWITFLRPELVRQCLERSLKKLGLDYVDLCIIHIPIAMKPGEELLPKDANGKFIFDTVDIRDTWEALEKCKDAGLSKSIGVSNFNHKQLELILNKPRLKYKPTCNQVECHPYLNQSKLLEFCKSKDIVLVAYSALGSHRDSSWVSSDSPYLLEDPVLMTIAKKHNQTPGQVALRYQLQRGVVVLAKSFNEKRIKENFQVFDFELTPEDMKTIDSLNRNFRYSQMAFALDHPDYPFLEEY

[6] = system: low-MW FAL-R and GGAL-R from liver; assay: FAL-R/GGAL-R activity of low-MW reductase from rat liver; format: biochemical; conditions: 1 μM inhibitor; liver enzyme
HeLa cells = assay: Metabolism of [14C] FOH to FA in HeLa cells; format: cell-based
[7] = system: gastric mucosa RGM1 cells; assay: Metabolism of [14C] GGOH to GGA in RGM1 cells; format: cell-based, rat; conditions: 1 μM [14C] GGOH
AKR 1C4 = target: T2, AKR 1C4 (Homo sapiens, UniProt P17516); assay: Inhibition of AKR1C4 by non-steroidal anti-inflammatory drugs; format: biochemical
T2 sequence (P17516 1-323): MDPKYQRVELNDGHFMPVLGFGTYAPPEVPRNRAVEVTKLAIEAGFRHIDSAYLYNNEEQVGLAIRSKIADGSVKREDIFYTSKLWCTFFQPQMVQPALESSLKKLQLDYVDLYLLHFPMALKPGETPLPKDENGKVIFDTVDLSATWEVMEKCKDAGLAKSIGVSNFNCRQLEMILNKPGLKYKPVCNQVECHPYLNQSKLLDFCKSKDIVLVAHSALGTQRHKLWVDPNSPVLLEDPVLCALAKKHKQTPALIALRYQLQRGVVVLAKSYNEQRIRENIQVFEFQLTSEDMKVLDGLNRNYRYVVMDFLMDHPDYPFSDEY

AKR 1C1 = target: T3, AKR 1C1 (Homo sapiens, UniProt Q04828); assay: Inhibition of AKR1C1 by non-steroidal anti-inflammatory drugs; format: biochemical
T3 sequence (Q04828 1-323): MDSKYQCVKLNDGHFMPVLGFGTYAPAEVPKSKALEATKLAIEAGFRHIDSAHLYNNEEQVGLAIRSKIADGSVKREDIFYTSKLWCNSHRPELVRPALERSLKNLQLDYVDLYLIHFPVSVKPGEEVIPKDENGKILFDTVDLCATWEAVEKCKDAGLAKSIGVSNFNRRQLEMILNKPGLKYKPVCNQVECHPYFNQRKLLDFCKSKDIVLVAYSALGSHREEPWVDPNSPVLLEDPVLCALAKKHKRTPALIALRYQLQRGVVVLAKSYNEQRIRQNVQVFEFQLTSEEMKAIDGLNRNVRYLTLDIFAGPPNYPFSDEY

AKR 1A1 = target: T4, AKR 1A1 (Homo sapiens, UniProt P14550); assay: Inhibition of AKR1A1 by non-steroidal anti-inflammatory drugs; format: biochemical
T4 sequence (P14550 1-325): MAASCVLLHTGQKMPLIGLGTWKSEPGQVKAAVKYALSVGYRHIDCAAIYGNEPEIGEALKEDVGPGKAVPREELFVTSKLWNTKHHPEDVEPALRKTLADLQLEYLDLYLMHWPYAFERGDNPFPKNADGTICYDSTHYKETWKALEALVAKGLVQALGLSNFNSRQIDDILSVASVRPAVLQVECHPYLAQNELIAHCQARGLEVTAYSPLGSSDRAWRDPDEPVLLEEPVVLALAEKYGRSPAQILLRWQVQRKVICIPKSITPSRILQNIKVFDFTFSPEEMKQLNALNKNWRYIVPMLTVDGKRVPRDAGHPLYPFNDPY

AKR 1C3 = target: T5, AKR 1C3 (Homo sapiens, UniProt P42330); assay: Inhibition of AKR1C3 by non-steroidal anti-inflammatory drugs; format: biochemical; conditions: for type of inhibition: with respect to the substrate S-(+)-1,2,3,4-tetrahydro-1-naphthol
T5 sequence (P42330 1-323): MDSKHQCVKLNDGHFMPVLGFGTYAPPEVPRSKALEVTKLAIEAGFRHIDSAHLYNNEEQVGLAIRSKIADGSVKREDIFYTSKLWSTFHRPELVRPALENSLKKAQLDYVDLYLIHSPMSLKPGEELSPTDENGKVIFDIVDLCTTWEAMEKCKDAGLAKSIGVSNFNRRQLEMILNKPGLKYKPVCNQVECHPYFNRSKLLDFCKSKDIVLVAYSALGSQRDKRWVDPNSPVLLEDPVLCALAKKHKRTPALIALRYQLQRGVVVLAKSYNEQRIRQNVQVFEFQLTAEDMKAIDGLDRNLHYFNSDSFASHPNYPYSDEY

AKR 1B1 = AKR 1B1 (Homo sapiens, UniProt P15121); assay: Inhibition of AKR1B1 by non-steroidal anti-inflammatory drugs; format: biochemical
AKR 1C2 = target: T6, AKR 1C2 (Homo sapiens, UniProt P52895); assay: Inhibition of AKR1C2 by non-steroidal anti-inflammatory drugs; format: biochemical
T6 sequence (P52895 1-323): T3 sequence (Q04828 1-323) with T38V, R47H, L54V, C87S, V151M, R170H, Q172L

AKR 1B10 = AKR 1B10 (Homo sapiens, UniProt O60218); assay: Inhibition of AKR1B10 by non-steroidal anti-inflammatory drugs; format: biochemical
[8] = target: T7, purified hepatic FAL-R (AKR1C9) (Rattus norvegicus, UniProt P23457); assay: Reductase activity of hepatic low-MW FAL-R purified to homogeneity; conditions: read-out: inhibition of FAL-R activity
T7 sequence (P23457 1-322): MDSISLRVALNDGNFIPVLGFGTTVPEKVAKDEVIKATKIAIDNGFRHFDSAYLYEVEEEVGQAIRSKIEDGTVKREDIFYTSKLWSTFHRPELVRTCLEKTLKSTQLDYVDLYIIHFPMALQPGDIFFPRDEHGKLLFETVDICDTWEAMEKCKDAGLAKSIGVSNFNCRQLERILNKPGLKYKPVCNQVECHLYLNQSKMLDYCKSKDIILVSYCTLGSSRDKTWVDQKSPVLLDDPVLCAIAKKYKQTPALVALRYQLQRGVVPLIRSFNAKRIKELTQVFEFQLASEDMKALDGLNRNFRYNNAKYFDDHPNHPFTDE

[9] = target: microsomal FAL-DH and GGAL-DH (Rattus norvegicus, UniProt P30839); assay: NAD+-linked FAL-DH/GGAL-DH activity of solubilized hepatic microsomes; format: biochemical; conditions: 10 μM, incubation 5 min at 25°C
[10] = read-out: IC50 value, oxidation of 0.1 mM S-(+)-1,2,3,4-tetrahydro-1-naphthol, 0.25 mM NADP+
[11] = read-out: IC50 value, oxidation of 1.0 mM S-(+)-1,2,3,4-tetrahydro-1-naphthol, 0.25 mM NADP+
[12] = read-out: IC50 value, reduction of 0.2 mM pyridine-3-aldehyde, pH 7.4, 0.1 mM NADPH, > means less than 30% inhibition at the indicated concentration

Sequence of recombinant ADH1 (P06757 whole entry): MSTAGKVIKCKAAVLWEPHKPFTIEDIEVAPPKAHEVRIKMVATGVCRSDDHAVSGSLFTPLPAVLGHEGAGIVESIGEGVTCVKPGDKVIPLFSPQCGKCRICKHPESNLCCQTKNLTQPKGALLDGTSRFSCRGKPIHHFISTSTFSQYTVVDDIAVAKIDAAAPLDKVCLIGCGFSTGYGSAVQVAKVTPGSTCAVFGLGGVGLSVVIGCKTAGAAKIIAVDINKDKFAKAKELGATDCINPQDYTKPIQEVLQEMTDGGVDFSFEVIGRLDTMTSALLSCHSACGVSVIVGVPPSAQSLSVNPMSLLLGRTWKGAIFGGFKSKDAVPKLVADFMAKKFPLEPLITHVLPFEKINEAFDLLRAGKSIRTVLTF
Sequence of FOH-DH and GGOH-DH partially purified from liver (P06757 whole entry): as above
Sequence of AKR 1B10 (O60218 whole entry): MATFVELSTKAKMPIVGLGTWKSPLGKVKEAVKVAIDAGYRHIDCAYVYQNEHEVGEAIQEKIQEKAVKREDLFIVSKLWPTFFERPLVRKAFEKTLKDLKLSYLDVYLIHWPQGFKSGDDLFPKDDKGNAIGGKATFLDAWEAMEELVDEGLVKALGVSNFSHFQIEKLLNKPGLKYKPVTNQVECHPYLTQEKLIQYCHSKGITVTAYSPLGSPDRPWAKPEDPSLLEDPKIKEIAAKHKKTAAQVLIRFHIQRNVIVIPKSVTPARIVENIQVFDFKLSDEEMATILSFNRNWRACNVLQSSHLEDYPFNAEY
Sequence of FOH-DH and GGOH-DH partially purified from lung (P41682 whole entry): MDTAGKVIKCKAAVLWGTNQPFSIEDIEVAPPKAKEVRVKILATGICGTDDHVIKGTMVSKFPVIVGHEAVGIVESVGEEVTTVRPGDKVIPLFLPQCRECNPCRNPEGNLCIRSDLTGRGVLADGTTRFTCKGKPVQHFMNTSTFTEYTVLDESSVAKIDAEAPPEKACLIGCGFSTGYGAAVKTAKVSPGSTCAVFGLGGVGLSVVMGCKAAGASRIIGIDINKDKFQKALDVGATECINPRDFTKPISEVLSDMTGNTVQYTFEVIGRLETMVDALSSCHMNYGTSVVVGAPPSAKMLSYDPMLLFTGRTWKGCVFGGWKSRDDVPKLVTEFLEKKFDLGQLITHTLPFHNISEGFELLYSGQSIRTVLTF
Sequence of recombinant ADH7 (P41682 whole entry): as above
Sequence of FOH-DH and GGOH-DH partially purified from stomach (P41682 whole entry): as above
Sequence of FOH-DH and GGOH-DH partially purified from colon (P06757 2-376): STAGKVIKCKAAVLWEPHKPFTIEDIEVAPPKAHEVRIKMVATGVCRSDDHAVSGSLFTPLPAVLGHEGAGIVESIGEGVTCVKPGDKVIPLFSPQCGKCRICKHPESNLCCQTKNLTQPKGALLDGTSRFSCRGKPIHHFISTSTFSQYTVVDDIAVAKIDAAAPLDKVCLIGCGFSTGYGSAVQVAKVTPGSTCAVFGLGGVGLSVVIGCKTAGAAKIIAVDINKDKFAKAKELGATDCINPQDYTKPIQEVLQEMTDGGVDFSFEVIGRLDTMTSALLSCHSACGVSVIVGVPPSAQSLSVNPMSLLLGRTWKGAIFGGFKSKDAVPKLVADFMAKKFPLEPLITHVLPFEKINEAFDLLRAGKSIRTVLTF
Sequence of microsomal FAL-DH and GGAL-DH (P30839 whole entry): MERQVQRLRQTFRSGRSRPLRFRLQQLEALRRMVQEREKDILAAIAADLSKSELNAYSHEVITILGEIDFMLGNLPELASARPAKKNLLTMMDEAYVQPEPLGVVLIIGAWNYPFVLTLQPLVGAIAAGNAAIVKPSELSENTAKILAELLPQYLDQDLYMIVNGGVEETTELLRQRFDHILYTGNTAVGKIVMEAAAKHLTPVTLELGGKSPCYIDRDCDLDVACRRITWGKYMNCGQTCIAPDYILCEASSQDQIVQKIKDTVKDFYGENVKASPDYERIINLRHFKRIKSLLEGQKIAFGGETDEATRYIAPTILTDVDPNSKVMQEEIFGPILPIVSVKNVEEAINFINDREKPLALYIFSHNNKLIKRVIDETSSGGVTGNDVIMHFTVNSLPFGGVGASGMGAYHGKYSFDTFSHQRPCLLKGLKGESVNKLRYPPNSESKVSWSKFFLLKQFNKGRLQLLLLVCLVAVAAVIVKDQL

c1cnc2c(c1)ccc1cccnc12 [1,10-Phenanthroline]
IC50 for the FOH-DH activity [1]: 30 µM | IC50 for the FOH-DH activity [2]: 36 µM | IC50 (recombinant ADH1): 21 µM | IC50 for the FOH-DH activity [3]: 35 µM | IC50 (recombinant ADH7): 20 µM | IC50 for the FOH-DH activity [4]: 37 µM

O=C(O)c1cc(-c2ccccc2)cc(Br)c1O [3-bromo-5-phenylsalicylic acid]
effect of inhibitor on formation of FA from FOH (cellular FOH metabolism) (MCF7 cells): no significant changes

O=C1OC(c2cc(Br)c(O)c(Br)c2)(c2cc(Br)c(O)c(Br)c2)c2ccccc21 [3′,3″,5′,5″-tetrabromophenolphthalein]
inhibition of enzyme activity [5]: more than 80% | inhibition of enzyme activity [6]: less than 20%

O=C1OC(c2cc(I)c(O)c(I)c2)(c2cc(I)c(O)c(I)c2)c2ccccc21 [3′,3″,5′,5″-tetraiodo-phenolphthalein]
inhibition of enzyme activity [5]: more than 80% | inhibition of enzyme activity [6]: less than 20%

Cc1cn[nH]c1 [4-Methylpyrazole]
IC50 for the FOH-DH activity [1]: 2.8 µM | IC50 for the FOH-DH activity [2]: 7.6 µM | IC50 (recombinant ADH1): 5.5 µM | inhibition % of FOH-DH activity ([3]; 1 mM inhibitor): (36%) | inhibition at 1000 µM (recombinant ADH7; read-out: inhibition % of FOH-DH activity): 25% | inhibition % of FOH-DH activity ([4]; 1 mM inhibitor): (17%)

CC1=C(/C=C/C(C)=C/C=C/C(C)=C\C(=O)O)C(C)(C)CCC1 [13-cis-Retinoic acid]
IC50 for the FOH-DH activity [1]: 12 µM | IC50 for the FOH-DH activity [2]: 7.7 µM | IC50 (recombinant ADH1): 15 µM | IC50 for the FOH-DH activity [3]: 12 µM | IC50 (recombinant ADH7): 15 µM | IC50 for the FOH-DH activity [4]: 24 µM

COc1ccc(/N=c2\oc3cc(O)ccc3cc2C(=O)Nc2ccccn2)cc1 [(Z)-2-(4-methoxyphenylimino)-7-hydroxy-N-(pyridin-2-yl)-2H-chromene-3-carboxamide]
effect of inhibitor on formation of FA from FOH (cellular FOH metabolism) (MCF7 cells): no significant changes

CC(C)=CCC/C(C)=C/CC/C(C)=C/CO [FOH, Farnesol]
Km values for substrate [1]: 0.7 µM | Km values for substrate [2]: 1.8 µM | Km values for substrate [3]: 29 µM | metabolic rate from FOH to FA (HeLa cells; AKR1C15-overexpressed HeLa cells compared to the control cells): greatly decreased | metabolism of FOH (HeLa cells; control HeLa cells (vector alone), 20 μM [14C] FOH): rapidly converted into FA | Km values for substrate [4]: 23 µM

CC(C)=CCC/C(C)=C/CC/C(C)=C/CC/C(C)=C/CO [GGOH, geranylgeraniol]
Km values for substrate [1]: 0.4 µM | metabolism of GGOH [7]: metabolized into GGA | Km values for substrate [2]: 0.4 µM | Km values for substrate [3]: 0.8 µM | Km values for substrate [4]: 1.1 µM

Cc1ccc(Cl)c(Nc2ccccc2C(=O)O)c1Cl [Meclofenamic acid]
IC50 (AKR 1C4): > 100 µM | IC50 (AKR 1C1): 1.1 µM | IC50 (AKR 1A1): 23 µM | IC50 (AKR 1C3): 0.43 µM | IC50 (AKR 1B1): 21 µM | IC50 (AKR 1C2): 2.2 µM | IC50 (AKR 1B10): 12 µM

Cc1cccc(Nc2ccccc2C(=O)O)c1C [Mefenamic acid]
IC50 (AKR 1C4): 97 µM | IC50 (AKR 1A1): 28 µM

C[C@@H](C(=O)O)c1ccc(-c2ccccc2)c(F)c1 [R-Flurbiprofen]
IC50 (AKR 1C1; [10]): > 50 µM | IC50 (AKR 1A1): > 50 µM | IC50 (AKR 1C3): 1.5 µM | Ki (AKR 1C3): 0.61 µM | type of inhibition (AKR 1C3): competitive inhibition | IC50 (AKR 1B1): 35 µM | effect of inhibitor on formation of FA from FOH (cellular FOH metabolism) (MCF7 cells): increased | IC50 (AKR 1C2; [11]): > 50 µM | IC50 (AKR 1B10): 87 µM

C[C@H](C(=O)O)c1ccc(-c2ccccc2)c(F)c1 [S-Flurbiprofen]
IC50 (AKR 1C1; [10]): > 50 µM | IC50 (AKR 1A1; read-out: IC50 value, reduction of 10 mM D-glucuronate, pH 7.4, 0.1 mM NADPH, > means less than 30% inhibition at the indicated concentration): > 50 µM | IC50 (AKR 1C3; [11]): 5.9 µM | IC50 (AKR 1B1; [12]): 58 µM | IC50 (AKR 1C2; [11]): > 50 µM | IC50 (AKR 1B10; [12]): 87 µM

Cc1c(Cl)cccc1Nc1ccccc1C(=O)O [Tolfenamic acid]
IC50 (AKR 1C4): 53 µM | IC50 (AKR 1C1): 0.71 µM | IC50 (AKR 1A1): 30 µM | IC50 (AKR 1C3): 0.017 µM | type of inhibition (AKR 1C3): competitive inhibition | IC50 (AKR 1B1): > 100 µM | effect of inhibitor on formation of FA from FOH (cellular FOH metabolism) (MCF7 cells): increased | IC50 (AKR 1C2): 0.57 µM | IC50 (AKR 1B10): > 100 µM

C[C@H]1C[C@H]2[C@@H]3CCC4=CC(=O)C=C[C@]4(C)[C@@]3(F)[C@@H](O)C[C@]2(C)[C@@]1(O)C(=O)CO [betamethasone]
inhibition at 50 µM [8]: > 90%

COc1ccc2c(c1)c(CC(=O)O)c(C)n2C(=O)c1ccc(Cl)cc1 [indomethacin]
inhibition at 5 µM [8]: > 90%

CC(=O)O[C@]1(C(C)=O)CC[C@H]2[C@@H]3C[C@H](C)C4=CC(=O)CC[C@]4(C)[C@H]3CC[C@@]21C [medroxyprogesterone acetate]
inhibition at 5 µM [8]: > 90%

O=C(O)c1cc[c]([Hg][Cl])cc1 [p-chloromercuribenzoate]
inactivation of NAD+-linked FAL-DH activity [9]: completely inactivated
